From ChEMBL document CHEMBL3046347, “Synthesis and biological evaluation of novel curcumin analogues as anti-inflammatory, anti-cancer and anti-oxidant agents” (Med Chem Res, 2012) come the findings set out here.

For data set [1], the system named is THP-1. In words: Anti-inflammatory activity in Homo sapiens (human) THP1 cells assessed as inhibition of LPS-induced IL6 production at 1 uM incubated for 30 min prior to LPS-challenge measured after 24 hr by ELISA. The format is functional.
Data set [2] is described as follows: Cytotoxicity against Homo sapiens (human) […] cells at 1 uM. Type of data set: cell-based.
In data set [3] the test system is THP-1. In words: Anti-inflammatory activity in Homo sapiens (human) THP1 cells assessed as inhibition of LPS-induced TNFalpha production at 1 uM incubated for 30 min prior to LPS-challenge measured after 24 hr by ELISA. Type of data set: functional.
A further data set deals with ACHN. Put plainly: Cytotoxicity against Homo sapiens (human) ACHN cells at 700 nM after 48 hr by propidium iodide-based fluorometric assay. Type of data set: functional. The conditions noted are these: read-out: GI.
Another data set deals with PANC-1. In words: Cytotoxicity against Homo sapiens (human) PANC1 cells at 700 nM after 48 hr by propidium iodide-based fluorometric assay. The format is functional. The conditions noted are these: PANC-1, 48 h, read-out: GI.
For another data set, the system named is HCT-116. Put plainly: Cytotoxicity against Homo sapiens (human) HCT116 cells at 700 nM after 48 hr by propidium iodide-based fluorometric assay. The format is functional. The conditions noted are these: HCT-116, 48 h, read-out: GI.
Data set [4] is described as follows: Cytotoxicity against Homo sapiens (human) H460 cells at 700 nM after 48 hr by propidium iodide-based fluorometric assay. Type of data set: functional. The conditions noted are these: NCI-H460, 48 h, read-out: GI.
Another data set has as its system Calu-1. In words: Cytotoxicity against Homo sapiens (human) Calu1 cells at 700 nM after 48 hr by propidium iodide-based fluorometric assay. Type of data set: functional. The conditions noted are these: Calu-1, 48 h, read-out: GI.

As for `C[C@@H]1C[C@H]2[C@@H]3CCC4=CC(=O)C=C[C@]4(C)[C@@]3(F)[C@@H](O)C[C@]2(C)[C@@]1(O)C(=O)CO` [DEXAMETHASONE], the results for the inhibition at 1 µM with THP-1 [1] and in the data set on THP-1 [3] were 94% and 72%, respectively. In addition, the Activity in data set [2] is listed as 0%.

On to `CN1CC[C@H](c2c(O)cc(O)c3c(=O)cc(-c4ccccc4Cl)oc23)[C@H](O)C1` [ALVOCIDIB], for which the inhibition of growth at 0.7 µM was 73% with ACHN; 68% in the data set on PANC-1; 83% in the data set with HCT-116; 73% in data set [4]; 82% with Calu-1.
